{"source": "patent US11572590B2", "about": "“Methods for evaluating tumor cell spheroids using 3D microfluidic cell culture device” (Dana-Farber Cancer Institute, Inc., priority 2017, dated 2023)", "assay_in_all_cases": "SelectScreen Kinase Profiling, single point inhibition and IC50 for off-target kinases", "format_in_all_cases": "biochemical", "key": {"off-target kinases [1]": {"target": "T1, off-target kinases (Homo sapiens, UniProt Q9UQB9)", "T1 sequence (Q9UQB9 1-309)": "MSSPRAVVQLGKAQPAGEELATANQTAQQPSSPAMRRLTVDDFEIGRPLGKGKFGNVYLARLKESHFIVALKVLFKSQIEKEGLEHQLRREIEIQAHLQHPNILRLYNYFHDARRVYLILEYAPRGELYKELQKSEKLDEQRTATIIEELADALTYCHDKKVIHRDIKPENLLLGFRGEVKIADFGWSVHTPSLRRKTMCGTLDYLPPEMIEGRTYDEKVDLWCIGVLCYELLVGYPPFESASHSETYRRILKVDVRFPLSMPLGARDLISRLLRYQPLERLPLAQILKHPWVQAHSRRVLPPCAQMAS", "conditions": "AURKC (Aurora C), ZLYTE, ATP Km app"}, "off-target kinases [2]": {"target": "T2, off-target kinases (Homo sapiens, UniProt Q15835)", "T2 sequence (Q15835 1-563)": "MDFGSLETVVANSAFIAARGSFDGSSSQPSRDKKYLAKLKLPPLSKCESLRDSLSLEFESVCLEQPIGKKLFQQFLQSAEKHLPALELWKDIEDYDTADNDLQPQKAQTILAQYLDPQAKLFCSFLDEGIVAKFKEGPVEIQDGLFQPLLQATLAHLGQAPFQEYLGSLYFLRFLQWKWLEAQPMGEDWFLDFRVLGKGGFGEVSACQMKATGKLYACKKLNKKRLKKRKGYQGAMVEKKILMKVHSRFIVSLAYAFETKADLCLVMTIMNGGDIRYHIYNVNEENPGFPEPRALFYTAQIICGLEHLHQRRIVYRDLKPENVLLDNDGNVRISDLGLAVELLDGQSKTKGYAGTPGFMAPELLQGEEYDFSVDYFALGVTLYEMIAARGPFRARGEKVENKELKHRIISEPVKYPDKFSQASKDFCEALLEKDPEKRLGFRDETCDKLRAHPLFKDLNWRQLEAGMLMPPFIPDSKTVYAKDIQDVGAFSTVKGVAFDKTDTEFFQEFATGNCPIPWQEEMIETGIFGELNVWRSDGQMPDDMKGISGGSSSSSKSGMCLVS", "conditions": "GRK1, LanthaScreen Binding"}, "off-target kinases [3]": {"target": "off-target kinases (Homo sapiens, UniProt P08631)", "sequence (P08631 whole entry)": "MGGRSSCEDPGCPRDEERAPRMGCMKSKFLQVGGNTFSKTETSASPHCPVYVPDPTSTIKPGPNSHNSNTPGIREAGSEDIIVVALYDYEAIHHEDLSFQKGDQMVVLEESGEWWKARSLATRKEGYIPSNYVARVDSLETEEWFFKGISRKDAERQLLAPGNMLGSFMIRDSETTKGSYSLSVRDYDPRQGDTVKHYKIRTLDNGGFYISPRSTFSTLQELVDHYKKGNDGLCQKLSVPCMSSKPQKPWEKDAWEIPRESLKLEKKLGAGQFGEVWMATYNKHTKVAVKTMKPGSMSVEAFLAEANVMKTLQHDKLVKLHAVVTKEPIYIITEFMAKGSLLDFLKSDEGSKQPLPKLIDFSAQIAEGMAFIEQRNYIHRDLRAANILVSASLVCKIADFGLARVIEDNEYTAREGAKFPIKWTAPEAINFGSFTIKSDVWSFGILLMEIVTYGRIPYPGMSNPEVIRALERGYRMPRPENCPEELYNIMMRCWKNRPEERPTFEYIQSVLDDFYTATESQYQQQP", "conditions": "HCK, ZLYTE, ATP Km app"}, "off-target kinases [4]": {"target": "off-target kinases (Homo sapiens, UniProt P07332)", "sequence (P07332 whole entry)": "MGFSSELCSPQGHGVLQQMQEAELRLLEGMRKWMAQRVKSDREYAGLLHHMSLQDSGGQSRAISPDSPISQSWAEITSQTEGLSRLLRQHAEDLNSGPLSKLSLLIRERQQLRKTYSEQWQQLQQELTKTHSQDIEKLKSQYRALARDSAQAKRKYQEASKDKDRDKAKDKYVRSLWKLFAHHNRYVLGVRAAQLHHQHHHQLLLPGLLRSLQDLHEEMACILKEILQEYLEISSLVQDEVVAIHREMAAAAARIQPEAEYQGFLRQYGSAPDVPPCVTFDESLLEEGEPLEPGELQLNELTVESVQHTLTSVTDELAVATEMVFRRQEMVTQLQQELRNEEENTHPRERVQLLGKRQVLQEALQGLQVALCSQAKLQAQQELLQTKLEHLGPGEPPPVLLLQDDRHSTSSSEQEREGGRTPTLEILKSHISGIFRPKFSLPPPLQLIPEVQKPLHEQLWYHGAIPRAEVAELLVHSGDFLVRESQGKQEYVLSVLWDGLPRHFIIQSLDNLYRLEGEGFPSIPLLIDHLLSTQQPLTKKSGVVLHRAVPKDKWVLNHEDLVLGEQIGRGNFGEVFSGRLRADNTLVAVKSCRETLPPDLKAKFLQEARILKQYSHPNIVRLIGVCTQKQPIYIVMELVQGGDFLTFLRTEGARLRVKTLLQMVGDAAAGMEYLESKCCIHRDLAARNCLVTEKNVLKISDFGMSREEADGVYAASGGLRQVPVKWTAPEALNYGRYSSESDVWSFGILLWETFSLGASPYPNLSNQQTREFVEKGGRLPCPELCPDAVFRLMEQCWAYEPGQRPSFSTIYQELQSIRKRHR", "conditions": "FES (FPS), ZLYTE, ATP Km app"}}, "note": "Where two headings read alike, the source gives them in different places.", "data": [{"smiles": "N#Cc1cc(-c2ncnc(Nc3ccc(N4CCN(C5COC5)CC4)cc3)n2)ccc1OC1CCOCC1", "note": "[Compound 1, 5-(4-((4-(4-(oxetan-3-yl)piperazin-1-yl)phenyl)amino)-1,3,5-triazin-2-yl)-2-((tetrahydro-2H-pyran-4-yl)oxy)benzonitrile]", "values": [{"measurement": "inhibition", "setting": "off-target kinases [1]; read-out: % Inhibition 1", "value": 23, "unit": "%"}, {"measurement": "inhibition", "setting": "off-target kinases [1]; read-out: % Inhibition 2", "value": 23, "unit": "%"}, {"measurement": "inhibition", "setting": "off-target kinases [1]; read-out: % Inhibition Avg", "value": 23, "unit": "%"}, {"measurement": "inhibition", "setting": "off-target kinases [2]; read-out: % Inhibition 1", "value": 7, "unit": "%"}, {"measurement": "inhibition", "setting": "off-target kinases [2]; read-out: % Inhibition 2", "value": 2, "unit": "%"}, {"measurement": "inhibition", "setting": "off-target kinases [2]; read-out: % Inhibition Avg", "value": 5, "unit": "%"}, {"measurement": "inhibition", "setting": "off-target kinases [3]; read-out: % Inhibition 1", "value": 26, "unit": "%"}, {"measurement": "inhibition", "setting": "off-target kinases [3]; read-out: % Inhibition 2", "value": 28, "unit": "%"}, {"measurement": "inhibition", "setting": "off-target kinases [3]; read-out: % Inhibition Avg", "value": 27, "unit": "%"}, {"measurement": "inhibition", "setting": "off-target kinases [4]; read-out: % Inhibition 1", "value": 9, "unit": "%"}, {"measurement": "inhibition", "setting": "off-target kinases [4]; read-out: % Inhibition 2", "value": 7, "unit": "%"}, {"measurement": "inhibition", "setting": "off-target kinases [4]; read-out: % Inhibition Avg", "value": 8, "unit": "%"}]}]}
